System: symptoms of diabetic gastroparesis
Test: Phase 2 randomized, double-blind, placebo-controlled study METO-IN-002 of metoclopramide nasal spray: symptom scores (mGCSI-DD, GCSI-DD, PAGI-SYM, other endpoints)
Format: in vivo, human
Set-up: key to Stomach Fullness / Early Satiety / Feeling Full / Loss of Appetite / Bloating / Stomach Larger / Upper Abdominal Pain / Upper Abdominal Discomfort / mGCSI-DD (primary endpoint) / Nausea / Retching / Vomiting / Sheehan Disability Scales / Investigator Assessment of Overall Gastroparesis Severity / Subject Assessment of Overall Gastroparesis Severity / Investigator Assessment of Overall Treatment Effect / Subject Assessment of Overall Treatment Effect / Days w/o Vomiting / Days w/o Nausea / Days w/o Vomiting or Nausea / Days w/o Upper Abdominal Pain or Upper Abdominal Discomfort / Nausea Response by Response Threshold / GCSI-DD / Days w/o Vomiting or Retching &, No Use of Rescue Medication / Nausea Responder Analysis / Overall Severity of Gastroparesis Symptoms - Subject / PAGI-SYM Questionnaire / Nausea/Vomiting (listed under PAGI-SYM Questionnaire) / Bloating (listed under PAGI-SYM Questionnaire) / Upper Abdominal Pain/Discomfort (listed under PAGI-SYM Questionnaire) / Early Satiety (listed under PAGI-SYM Questionnaire): A=Favors Active; P=Favors Placebo
Conditions: for Statistically significant improvement in mGCSI-DD score (in words): 10 mg IN and 14 mg IN arms, Baseline to Week 4; for Bloating / Bloating (listed under PAGI-SYM Questionnaire) / Days w/o Nausea / Days w/o Upper Abdominal Pain or Upper Abdominal Discomfort / Days w/o Vomiting / Days w/o Vomiting or Nausea / Days w/o Vomiting or Retching &, No Use of Rescue Medication / Early Satiety / Early Satiety (listed under PAGI-SYM Questionnaire) / Feeling Full / GCSI-DD / Investigator Assessment of Overall Gastroparesis Severity / Investigator Assessment of Overall Treatment Effect / Loss of Appetite / Nausea / Nausea Responder Analysis / Nausea Response by Response Threshold / Nausea/Vomiting (listed under PAGI-SYM Questionnaire) / Overall Severity of Gastroparesis Symptoms - Subject / PAGI-SYM Questionnaire / Retching / Sheehan Disability Scales / Stomach Fullness / Stomach Larger / Subject Assessment of Overall Gastroparesis Severity / Subject Assessment of Overall Treatment Effect / Upper Abdominal Discomfort / Upper Abdominal Pain / Upper Abdominal Pain/Discomfort (listed under PAGI-SYM Questionnaire) / Vomiting / mGCSI-DD (primary endpoint): Week 4, vs placebo
Protocol: Example 1: A Multicenter, Randomized, Double-Blind, Placebo-Controlled, Parallel Group, Dose-Ranging Clinical Study to Evaluate the Efficacy and Safety of Metoclopramide Nasal Spray Solution in Diabetic Subjects with Gastroparesis
The objectives of this study were to evaluate the safety and the effectiveness of two doses of metoclopramide nasal spray solution, 10 mg and 14 mg, compared to placebo in reducing the symptoms of diabetic gastroparesis and to assess the plasma concentrations of two doses of metoclopramide nasal spray in subjects with diabetic gastroparesis following a single dose and at steady state. The aforementioned dosages for the treatment and control of gastroparesis were administered before meals and/or before bed time. Subjects who met the entry criteria after the Washout Period (Day −7 to Day −1) were randomized using an IVRS, to metoclopramide nasal spray 10 mg, 14 mg, or placebo, in roughly equal numbers (approximately 1:1:1) using a predetermined randomization schedule employing permuted blocks. Randomization was preformed centrally.
Metoclopramide nasal spray solution, 200 mg/mL base (as monohydrochloride monohydrate) is a clear colorless to pale-yellow aqueous solution manufactured for Evoke Pharma. The metoclopramide nasal spray was packaged in a 10 mL amber glass vial mounted with a metered nasal spray pump. The metered dose vial delivered a 50 μL or 70 μL spray (10 mg or 14 mg of metoclopramide base respectively) with each actuation. One 10 mL vial contained sufficient metoclopramide nasal spray to deliver 120 doses of 10 mg or 14 mg.
A vehicle control was used as the placebo for metoclopramide nasal spray solution. The placebo spray was packaged in a 10 mL amber glass vial mounted with a metered nasal spray pump. The metered dose vial delivered a 50 μL spray with each actuation. One 10 mL vial contained sufficient placebo to deliver 120 doses. The delivery of either a 50 μL or 70 μL spray is indistinguishable to the subject or study staff.
A 7-day Washout Period preceded randomization. During this time, and for the duration of the study, subjects were asked to discontinue use of all medications that are known to ameliorate or exacerbate symptoms associated with diabetic gastroparesis. Subjects were trained on the use of an interactive voice response system (IVRS) to record the severity of nine gastroparesis symptoms of the GCSI-DD and additional symptoms such as: severity of abdominal pain and abdominal discomfort, number of hours of nausea, number of episodes of vomiting, and overall severity of gastroparesis symptoms in a daily diary. The IVRS was used during the treatment period for self-reported assessments. Subjects completed these diary assessments via the IVRS each evening.
Subjects with a mean GCSI-DD total score of <2.0 or >4.0 during the 7-day Washout Period were excluded from the study.
At the Randomization Visit (Day 0), the Patient Assessment of Upper Gastrointestinal Disorders Symptoms (PAGI-SYM) Questionnaire, and disability questionnaires were administered to the subject and the Investigator and subject assessed overall gastroparesis symptom severity (OGS) prior to taking study drug. Subjects began taking the study drug at the clinical site with a single dose on Day 0. The subjects returned to the clinic for safety and efficacy evaluations on Visits 4, 5, 6, and 7 (Days 7, 14, 21, and 28).
At each scheduled study visit to the clinical study site, the IVRS daily diary compliance was reviewed. In addition, at Visit 5 (Day 14), the PAGI-SYM Questionnaire was administered to the subject and the Investigator and subject assessed OGS severity. At the Final Visit (Day 28) subjects took their last dose of study drug at the clinical site and returned their vial of unused/remaining study drug. The subject completed the PAGI-SYM, and disability questionnaires. The Investigator and subject assessed OGS and overall treatment effect (OTE). […]

[1] = all subjects (ITT), 10 mg IN four times daily
[2] = all subjects (ITT), 14 mg IN four times daily
[3] = females, 10 mg IN four times daily
[4] = females, 10 mg IN four times daily, listed as Metoclopramide
[5] = females, 14 mg IN four times daily
[6] = males, 10 mg IN four times daily
[7] = males, 10 mg IN four times daily, listed as Metoclopramide
[8] = males, 14 mg IN four times daily

CCN(CC)CCNC(=O)c1cc(Cl)c(N)cc1OC [metoclopramide, -amino-5-chloro-N-(2-(diethylamino)ethyl)-2-methoxybenzamide]
Mean Change from Baseline to Week 4 in mGCSI-DD [1]: −1.2
Mean mGCSI-DD total score at Week 4 [1]: 1.6
Mean Change from Baseline to Week 4 in mGCSI-DD [2]: −1.2
Mean mGCSI-DD total score at Week 4 [2]: 1.7
Statistically significant improvement in mGCSI-DD score (in words) (all subjects): neither Treatment Arm experienced statistically significant improvement
Difference of Least Square Means, mGCSI-DD change from Baseline to Week 4 (all subjects, 10 mg IN vs placebo): −0.20
Difference of Least Square Means, mGCSI-DD change from Baseline to Week 4 (all subjects, 14 mg IN vs Metoclopramide 10 mg): 0.06
Difference of Least Square Means, mGCSI-DD change from Baseline to Week 4 (all subjects, 14 mg IN vs placebo): −0.14
Symptoms with statistical separation or improved trends compared to placebo (female subjects, 11 symptoms collected): 11 of 11
Statistically significant improvement in mGCSI-DD score (in words) (females): statistically significant improvement
Mean Change from Baseline to Week 4 in mGCSI-DD [3]: −1.2 (−1.2)
Mean mGCSI-DD total score at Week 4 [3]: 1.6 (1.6)
Bloating [3]: A
Bloating (listed under PAGI-SYM Questionnaire) [3]: A
Days w/o Nausea [3]: A (p < 0.05)
Days w/o Upper Abdominal Pain or Upper Abdominal Discomfort [3]: A
Days w/o Vomiting [3]: A
Days w/o Vomiting or Nausea [3]: A (p < 0.05)
Days w/o Vomiting or Retching &, No Use of Rescue Medication [3]: A
Early Satiety [3]: A
Early Satiety (listed under PAGI-SYM Questionnaire) [3]: A
Feeling Full [3]: A (p < 0.05)
GCSI-DD [3]: A (p < 0.05)
Investigator Assessment of Overall Gastroparesis Severity [3]: A
Investigator Assessment of Overall Treatment Effect [3]: P
Loss of Appetite [3]: A
Nausea [3]: A (p < 0.05)
Nausea Responder Analysis [3]: A
Nausea Response by Response Threshold [3]: A (p < 0.05)
Nausea/Vomiting (listed under PAGI-SYM Questionnaire) [3]: A
Overall Severity of Gastroparesis Symptoms - Subject [3]: A (p < 0.05)
PAGI-SYM Questionnaire [3]: A
Retching [3]: A
Sheehan Disability Scales [3]: A
Stomach Fullness [3]: A
Stomach Larger [3]: A
Subject Assessment of Overall Gastroparesis Severity [3]: A
Subject Assessment of Overall Treatment Effect [3]: A
Upper Abdominal Discomfort [3]: A
Upper Abdominal Pain [3]: A (p < 0.05)
Upper Abdominal Pain/Discomfort (listed under PAGI-SYM Questionnaire) [3]: A
Vomiting [3]: A
mGCSI-DD (primary endpoint) [3]: A (p < 0.05)
Mean Change from Baseline to Week 4 in mGCSI-DD [4]: −1.2
Mean mGCSI-DD total score at Week 4 [4]: 1.6
Difference of Least Square Means, mGCSI-DD change from Baseline to Week 4 (females, 10 mg IN vs placebo): −0.38
Mean Change from Baseline to Week 4 in mGCSI-DD [5]: −1.3
Mean mGCSI-DD total score at Week 4 [5]: 1.7 (1.7)
Bloating [5]: A
Bloating (listed under PAGI-SYM Questionnaire) [5]: A
Days w/o Nausea [5]: A (p < 0.05)
Days w/o Upper Abdominal Pain or Upper Abdominal Discomfort [5]: P
Days w/o Vomiting [5]: A
Days w/o Vomiting or Nausea [5]: A (p < 0.05)
Days w/o Vomiting or Retching &, No Use of Rescue Medication [5]: A
Early Satiety [5]: A
Early Satiety (listed under PAGI-SYM Questionnaire) [5]: A
Feeling Full [5]: A
GCSI-DD [5]: A (p < 0.05)
Investigator Assessment of Overall Gastroparesis Severity [5]: A
Investigator Assessment of Overall Treatment Effect [5]: A
Loss of Appetite [5]: A
Nausea [5]: A (p < 0.05)
Nausea Responder Analysis [5]: A (p < 0.05)
Nausea Response by Response Threshold [5]: A (p < 0.05)
Nausea/Vomiting (listed under PAGI-SYM Questionnaire) [5]: A (p < 0.05)
Overall Severity of Gastroparesis Symptoms - Subject [5]: A
PAGI-SYM Questionnaire [5]: A
Retching [5]: A
Sheehan Disability Scales [5]: A
Stomach Fullness [5]: A
Stomach Larger [5]: A (p < 0.05)
Subject Assessment of Overall Gastroparesis Severity [5]: A
Subject Assessment of Overall Treatment Effect [5]: A
Upper Abdominal Discomfort [5]: A
Upper Abdominal Pain [5]: A (p < 0.05)
Upper Abdominal Pain/Discomfort (listed under PAGI-SYM Questionnaire) [5]: A
Vomiting [5]: A
mGCSI-DD (primary endpoint) [5]: A (p < 0.05)
Mean mGCSI-DD total score at Week 4 (females, 14 mg IN four times daily, listed as Metoclopramide): 1.7
Difference of Least Square Means, mGCSI-DD change from Baseline to Week 4 (females, 14 mg IN vs Metoclopramide 10 mg): −0.00
Difference of Least Square Means, mGCSI-DD change from Baseline to Week 4 (females, 14 mg IN vs placebo): −0.38
Symptoms that showed a positive trend (male subjects, 11 symptoms collected): 1 of 11
Statistically significant improvement in mGCSI-DD score (in words) (males): did not experience significant improvement
Mean Change from Baseline to Week 4 in mGCSI-DD [6]: −1.2 (−1.2)
Mean mGCSI-DD total score at Week 4 [6]: 1.6 (1.6)
Bloating [6]: P
Bloating (listed under PAGI-SYM Questionnaire) [6]: P
Days w/o Nausea [6]: P
Days w/o Upper Abdominal Pain or Upper Abdominal Discomfort [6]: P
Days w/o Vomiting [6]: P
Days w/o Vomiting or Nausea [6]: P
Days w/o Vomiting or Retching &, No Use of Rescue Medication [6]: A
Early Satiety [6]: P
Early Satiety (listed under PAGI-SYM Questionnaire) [6]: P
Feeling Full [6]: P
GCSI-DD [6]: P
Investigator Assessment of Overall Gastroparesis Severity [6]: P
Investigator Assessment of Overall Treatment Effect [6]: A
Loss of Appetite [6]: P
Nausea [6]: P
Nausea Responder Analysis [6]: P
Nausea Response by Response Threshold [6]: P
Nausea/Vomiting (listed under PAGI-SYM Questionnaire) [6]: P
Overall Severity of Gastroparesis Symptoms - Subject [6]: A
PAGI-SYM Questionnaire [6]: P
Retching [6]: P
Sheehan Disability Scales [6]: A
Stomach Fullness [6]: P
Stomach Larger [6]: P
Subject Assessment of Overall Gastroparesis Severity [6]: P
Subject Assessment of Overall Treatment Effect [6]: A
Upper Abdominal Discomfort [6]: P
Upper Abdominal Pain [6]: P
Upper Abdominal Pain/Discomfort (listed under PAGI-SYM Questionnaire) [6]: P
Vomiting [6]: A
mGCSI-DD (primary endpoint) [6]: P
Mean Change from Baseline to Week 4 in mGCSI-DD [7]: −1.2
Mean mGCSI-DD total score at Week 4 [7]: 1.6
Difference of Least Square Means, mGCSI-DD change from Baseline to Week 4 (males, 10 mg IN vs placebo): 0.18
Mean Change from Baseline to Week 4 in mGCSI-DD [8]: −0.9
Mean mGCSI-DD total score at Week 4 [8]: 1.7 (1.7)
Bloating [8]: P
Bloating (listed under PAGI-SYM Questionnaire) [8]: P (p < 0.05)
Days w/o Nausea [8]: P
Days w/o Upper Abdominal Pain or Upper Abdominal Discomfort [8]: P (p < 0.05)
Days w/o Vomiting [8]: P
Days w/o Vomiting or Nausea [8]: P
Days w/o Vomiting or Retching &, No Use of Rescue Medication [8]: A
Early Satiety [8]: P (p < 0.05) and P
Early Satiety (listed under PAGI-SYM Questionnaire) [8]: P (p < 0.05)
Feeling Full [8]: P
GCSI-DD [8]: P
Investigator Assessment of Overall Gastroparesis Severity [8]: P
Investigator Assessment of Overall Treatment Effect [8]: P
Loss of Appetite [8]: P (p < 0.05)
Nausea [8]: P
Nausea Responder Analysis [8]: P
Nausea Response by Response Threshold [8]: P
Nausea/Vomiting (listed under PAGI-SYM Questionnaire) [8]: P
Overall Severity of Gastroparesis Symptoms - Subject [8]: A
PAGI-SYM Questionnaire [8]: P
Retching [8]: P
Sheehan Disability Scales [8]: A
Stomach Fullness [8]: P
Stomach Larger [8]: P (p < 0.05)
Subject Assessment of Overall Gastroparesis Severity [8]: P
Subject Assessment of Overall Treatment Effect [8]: P
Upper Abdominal Discomfort [8]: P
Upper Abdominal Pain [8]: P
Upper Abdominal Pain/Discomfort (listed under PAGI-SYM Questionnaire) [8]: P
Vomiting [8]: A
mGCSI-DD (primary endpoint) [8]: P
Mean mGCSI-DD total score at Week 4 (males, 14 mg IN four times daily, listed as Metoclopramide): 1.7
Difference of Least Square Means, mGCSI-DD change from Baseline to Week 4 (males, 14 mg IN vs Metoclopramide 10 mg): 0.14
Difference of Least Square Means, mGCSI-DD change from Baseline to Week 4 (males, 14 mg IN vs placebo): 0.32
